From patent publication US10137115B2, “Therapeutic inhibitor for EBV-associated tumor with tailor responsive optical imaging” (priority 2016, dated 2018)
“Also recorded” adds a separate entry of the source. Non-standard residues stand in square brackets, D forms with d. Residues, ends and D or L forms follow the SMILES beside them. No end group written: not given here. *: point of attachment. X1 = CCN(CC)c1ccc(/C=C/c2cc[n+](CC(=O)*)cc2)cc1; Ahx = NCCCCCC(=O)O

What was measured:
WT-EBNA1 [1] = biological target: T1, WT-EBNA1 (Epstein-Barr virus, UniProt P03211); assay: biochemical; assay type: binding; design: Wild type EBNA1 protein (379-641 a.a.) fusing with glutathione S-transferase is expressed in Escherichia coli; GST (glutathione S-transferase); made in house; host or cells: Escherichia coli (BL21); settings: for emission intensity increase on addition of WT-EBNA1: 4 μM WT-EBNA1, PBS buffer
Procedure: Bind constant via luminescence titration: Luminescence titration analysis is conducted with gradually addition of WT EBNA1 to evaluate the binding constants between the three peptide conjugates and WT EBNA1. […] The binding constants for Ka are obtained from the double logarithm regression curve: lg[(I−I0)/I0]=lg Ka+n lg[G] equation 2
Where I and I0 are current and initial fluorescence, respectively, Ka is the binding constant, n is the number of binding sites per WT EBNA1, and [G] is total concentration of WT EBNA1.
Protein samples preparation. Five protein samples are used.

[2] = system: EBV-positive (C666-1 and NPC43) and EBV-negative (CNE2 and HeLa) cell lines; assay: In vitro confocal imaging and co-staining; assay type: cell-based, human; settings: 10 μM, 6 h
Procedure: HeLa is EBV-negative human cervical carcinoma cells, CNE2 is EBV-negative nasopharyngeal carcinoma cells, C666-1 is EBV-positive nasopharyngeal carcinoma cells, and NPC 43 is the newly derived EBV-positive nasopharyngeal carcinoma cells.
The cells are incubated with 6 hours before monitoring imaging.

[3] = Emission quantum yield in water, comparative method using rhodamine 6G; assay type: physicochemical; settings: λex=480 nm, without WT-EBNA1
Procedure: Quantum yields of L2Pn are evaluated by the following equation 1: […]
Where the subscripts r and s denote reference and sample respectively, ϕ is the quantum yield, G is the slope from the plot integrated emission intensity vs absorbance, and η is the refractive index of the solvent. The correction curve is obtained by comparing the experimentally recorded spectrum of the standard rhodamine 6G with the published data.

WT-EBNA1 [4] = biological target: T1, WT-EBNA1; assay: Emission quantum yield in the presence of WT-EBNA1; settings: in water, saturated WT-EBNA1, λex=480 nm

T1 sequence (P03211 379-641): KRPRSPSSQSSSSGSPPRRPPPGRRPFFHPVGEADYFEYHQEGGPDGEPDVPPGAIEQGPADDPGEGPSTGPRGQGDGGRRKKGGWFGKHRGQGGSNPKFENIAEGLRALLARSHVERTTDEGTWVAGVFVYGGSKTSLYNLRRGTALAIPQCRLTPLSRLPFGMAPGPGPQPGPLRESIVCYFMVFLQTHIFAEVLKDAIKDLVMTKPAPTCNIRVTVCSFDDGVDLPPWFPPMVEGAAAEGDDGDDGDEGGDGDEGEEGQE

Molecule	emission intensity increase on addition of WT-EBNA1 (WT-EBNA1 [1])	subcellular localization in EBV-positive cells [2]	emission quantum yield [3] [%]	emission quantum yield + WT EBNA1 (WT-EBNA1 [4]) [%]	Kd (WT-EBNA1 [1]) [µM]	selectivity towards WT-EBNA1 (emission enhancement vs other proteins, ions) (WT-EBNA1 [1]; 2 μM in PBS buffer, vs BSA, mutant EBNA1, ZnCl2, NaHCO3, CuCl2, citrates)
L2P2: peptide conjugate of L2 (4-(4-(Diethylamino)styryl)-N-carboxymethylpyridinium chloride) and peptide P2 YFMVF (also: conjugated to L2, site not given here)	no intensity change; also recorded: did not show any enhancements	cytoplasm location only; also recorded: only found in the cytoplasm	4.4	3.8	–	–
CCN(CC)c1ccc(/C=C/c2cc[n+](CC(=O)N[C@@H](CS)C(=O)NCCCCCC(=O)N[C@@H](CCCNC(=N)N)C(=O)N[C@H](CCCNC(=N)N)C(=O)N[C@@H](CCCNC(=N)N)C(=O)N[C@@H](CCCCN)C(=O)NCC(=O)NCC(=O)N[C@@H](Cc3ccc(O)cc3)C(=O)N[C@@H](Cc3ccccc3)C(=O)N[C@@H](CCSC)C(=O)N[C@H](C(=O)N[C@@H](Cc3ccccc3)C(N)=O)C(C)C)cc2)cc1 [L2P3] (X1-C[Ahx]R[dR]RKGGYFMVF-NH2)	4.7 fold	can goes into C666-1 cell nucleus; also recorded: nuclear localization	4.3	13.0	3.16	selective towards WT-EBNA1
